# Assay results reported in patent publication EP1626095A1, “Fluorescence-based kinetic determination of transglutaminase activity” (N-Zyme BioTec GmbH, priority 2004, dated 2006).
# Where a SMILES comes first, the peptide text is derived from it. [ ]: non-standard residue; d: D form. The star is where a group is joined. X1 = O=[N+]([O-])c1ccc(NCCCCCN*)c([N+](=O)[O-])c1; 2Abz = Nc1ccccc1C(=O)O
# Columns and labels:
# [1] = target: T1, gereinigte rekombinante humane Transglutaminase 2 (Homo sapiens, UniProt P21980); assay: Selectivity test: fluorescence-based kinetic transglutaminase activity measurement (release of quencher from substrate peptide), Ansatz 2; type: biochemical; settings: substrate peptide 50 µM; rhHis6TG2 0,25 µM; 6 % DMSO; Exc.: 310 nm Em.: 427 nm, 20 min
# T1 construct: His6
# T1 sequence (P21980 1-687): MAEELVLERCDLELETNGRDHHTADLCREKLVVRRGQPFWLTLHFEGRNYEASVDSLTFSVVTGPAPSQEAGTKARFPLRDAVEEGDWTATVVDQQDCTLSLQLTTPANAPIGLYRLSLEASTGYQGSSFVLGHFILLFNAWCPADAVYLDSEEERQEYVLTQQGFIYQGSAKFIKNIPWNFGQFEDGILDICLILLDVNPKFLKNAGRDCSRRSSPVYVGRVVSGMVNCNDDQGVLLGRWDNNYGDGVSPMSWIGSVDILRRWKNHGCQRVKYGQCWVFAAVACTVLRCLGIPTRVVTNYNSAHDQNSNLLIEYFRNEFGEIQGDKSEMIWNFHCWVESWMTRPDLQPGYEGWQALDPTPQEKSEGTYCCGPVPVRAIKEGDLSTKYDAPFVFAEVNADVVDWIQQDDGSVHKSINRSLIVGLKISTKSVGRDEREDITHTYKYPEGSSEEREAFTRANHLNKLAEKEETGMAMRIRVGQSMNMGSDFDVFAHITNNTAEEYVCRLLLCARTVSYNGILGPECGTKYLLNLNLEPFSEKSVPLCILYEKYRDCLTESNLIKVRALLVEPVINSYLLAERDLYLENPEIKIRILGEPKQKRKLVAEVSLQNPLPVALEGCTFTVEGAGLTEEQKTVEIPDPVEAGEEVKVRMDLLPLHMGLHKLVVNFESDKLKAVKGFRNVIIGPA
# Description: (§1) Selektivität der Messungen verschiedener Transglutaminasen
# 2. Ansatz: Abz-Asn-Glu(CAD-DNP)-Glu-Gln-Val-Ser-Pro-Leu-Thr-Leu-Leu-Lys (2) Transglutaminase: gereinigte rekombinante humane Transglutaminase 2
# Faktor XIII = target: T2, Faktor XIII (Homo sapiens, UniProt P00488); assay: Selectivity test: fluorescence-based kinetic transglutaminase activity measurement (release of quencher from substrate peptide), Ansatz 1; type: biochemical; settings: substrate peptide 50 µM; Faktor XIII: 100 µl Citratplasma; 6 % DMSO; Exc.: 310 nm Em.: 427 nm, 20 min
# T2 construct: 100 µl Citratplasma; from tissue; host or cells: citrate plasma
# T2 sequence (P00488 39-732 limits assumed): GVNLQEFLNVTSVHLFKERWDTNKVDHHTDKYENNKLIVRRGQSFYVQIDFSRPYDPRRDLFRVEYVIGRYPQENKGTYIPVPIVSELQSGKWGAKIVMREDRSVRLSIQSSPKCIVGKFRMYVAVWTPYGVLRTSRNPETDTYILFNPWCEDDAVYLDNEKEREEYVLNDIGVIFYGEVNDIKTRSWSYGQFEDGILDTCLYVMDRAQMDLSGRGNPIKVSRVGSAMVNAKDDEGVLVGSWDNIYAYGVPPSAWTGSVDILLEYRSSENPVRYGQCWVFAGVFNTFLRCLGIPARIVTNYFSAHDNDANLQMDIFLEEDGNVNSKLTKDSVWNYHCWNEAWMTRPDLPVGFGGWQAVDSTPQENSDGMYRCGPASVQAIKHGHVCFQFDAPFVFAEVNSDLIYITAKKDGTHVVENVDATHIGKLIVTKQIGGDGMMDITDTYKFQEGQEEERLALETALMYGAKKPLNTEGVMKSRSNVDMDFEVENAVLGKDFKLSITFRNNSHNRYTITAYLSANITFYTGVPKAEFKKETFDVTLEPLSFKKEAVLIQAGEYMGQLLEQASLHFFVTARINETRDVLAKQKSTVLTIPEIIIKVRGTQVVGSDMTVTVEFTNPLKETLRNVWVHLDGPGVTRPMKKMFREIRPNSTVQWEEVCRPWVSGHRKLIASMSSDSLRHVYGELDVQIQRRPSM
# Description: as §1
# 1. Ansatz: Substratpeptid: Abz-Ala-Pro-Glu(CAD-DNP)-Gln-Glu-Ala (3), Transglutaminase: Faktor XIII
Ergebnis (Anstieg der Fluoreszenz) [1],Compound,Ergebnis (Anstieg der Fluoreszenz) (Faktor XIII)
kein Anstieg der Fluoreszenz,"2-Aminobenzoyl-L-asparaginyl-N^δ-[N-(2,4-dinitrophenyl)1-5-aminopentyl]-L-glutaminyl-L-glutamyl-L-glutaminyl-L-valinyl-L-serinyl-L-prolinyl-L-leucinyl-L-threoninyl-L-leucinyl-L-leucin-L-lysin [Verbindung 2]",–
–,C[C@H](NC(=O)[C@H](CCC(=O)O)NC(=O)[C@H](CCC(N)=O)NC(=O)[C@H](CCC(=O)NCCCCCNc1ccc([N+](=O)[O-])cc1[N+](=O)[O-])NC(=O)[C@@H]1CCCN1C(=O)[C@H](C)NC(=O)c1ccccc1N)C(=O)O [Verbindung 3] (H-[2Abz]APE(X1)QEA-OH),Ergebnis: kein Anstieg der Fluoreszenz
